pIC50: −log10 of the molar value. Read-outs that look alike come from different tables or passages of the source.
Key:
[1] = system: Cells stably expressing Amyloid Precursor Protein (APP); experiment: In vitro BACE cell-based assay (HEK cell assay): Aβ40 in conditioned medium by sandwich ELISA
How it was run: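 APP-stably-expressing cells were grown 24 h in DMEM/10% FBS, then treated for 24 h with 10-point doses starting at 100 μM or 10 μM, at 0.1% DMSO final. Aβ40 in conditioned medium was measured by sandwich ELISA (pAb40 capture, biotinylated 6E10 detection, europium time-resolved fluorescence); IC50 from percent inhibition.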

BACE1 = BACE1 (Homo sapiens, UniProt P56817); experiment: In vitro enzymatic BACE FRET (fluorescence resonance energy transfer) assay; type: biochemical
How it was run: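 Cleavage of a quenched peptide FRET substrate (50 nM) in 0.05 M acetate pH 4.2, 10% DMSO, 100 uM genapol, 1 h incubation. Reaction stopped by Tris neutralization; fluorescence read at excitation 488 nm / […].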

CYP3A4 (CYP3A) = CYP3A4 (CYP3A) (Homo sapiens, UniProt P08684); experiment: CYP3A inhibition assay (midazolam, pooled human liver microsomes); type: in vitro ADME; conditions: human, pooled human liver microsomes, pH 7.4, probe midazolam (printed as about […]); read-out: 3A4 IC50
[2] = Microsomal stability assay, human liver microsomes; type: in vitro ADME
Description: (§1) Microsomal Stability Assay

[3] = Microsomal stability assay, rat liver microsomes; type: in vitro ADME
Description: as §1

[4] = Homo sapiens, HEK293, 24 h, Aβ40 in conditioned medium after 24 h incubation

Chain of CYP3A4 (CYP3A) (P08684 2-503): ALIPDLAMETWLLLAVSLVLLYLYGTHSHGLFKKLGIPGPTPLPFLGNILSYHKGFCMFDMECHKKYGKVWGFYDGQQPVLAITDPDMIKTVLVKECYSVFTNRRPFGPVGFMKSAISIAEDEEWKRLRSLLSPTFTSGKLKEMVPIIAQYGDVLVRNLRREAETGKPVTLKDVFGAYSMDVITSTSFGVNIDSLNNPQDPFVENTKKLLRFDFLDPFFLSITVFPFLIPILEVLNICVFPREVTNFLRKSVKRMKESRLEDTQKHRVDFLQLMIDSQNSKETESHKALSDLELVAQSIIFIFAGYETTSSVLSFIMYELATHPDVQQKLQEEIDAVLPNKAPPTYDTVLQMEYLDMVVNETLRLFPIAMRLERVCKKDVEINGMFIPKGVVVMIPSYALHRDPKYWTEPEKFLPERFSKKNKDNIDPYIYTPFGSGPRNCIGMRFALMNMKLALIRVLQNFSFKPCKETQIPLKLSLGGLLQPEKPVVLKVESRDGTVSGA
Chain of BACE1 (P56817 46-501, species assumed): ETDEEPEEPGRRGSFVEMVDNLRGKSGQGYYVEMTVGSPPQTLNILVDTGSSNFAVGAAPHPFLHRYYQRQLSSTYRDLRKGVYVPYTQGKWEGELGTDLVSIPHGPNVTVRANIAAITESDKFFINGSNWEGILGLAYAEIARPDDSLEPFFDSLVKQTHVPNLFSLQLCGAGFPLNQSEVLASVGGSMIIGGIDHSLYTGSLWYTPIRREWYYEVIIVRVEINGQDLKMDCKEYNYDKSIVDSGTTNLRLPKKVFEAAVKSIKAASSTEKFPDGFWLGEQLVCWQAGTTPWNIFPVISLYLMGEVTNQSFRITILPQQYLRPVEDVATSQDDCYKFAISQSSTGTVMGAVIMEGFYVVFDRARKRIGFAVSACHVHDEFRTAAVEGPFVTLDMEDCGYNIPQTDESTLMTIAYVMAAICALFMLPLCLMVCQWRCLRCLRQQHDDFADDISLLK

Row | SMILES | pIC50 ([1]; Homo sapiens, HEK293) | pIC50 (BACE1; read-out: BACE 1 FRET assay) | IC50 at 10 min (CYP3A4 (CYP3A)) | HLM [2] | RLM [3] | pIC50 ([1]; Aβ40 in conditioned medium after 24 h incubation) | pIC50 (BACE1) | pIC50 [1, 4]
1 | C=CC[C@H](NC(=O)[C@@H](C)OC)[C@H](O)CN[C@H]1CC2(CCC2)Oc2c1cc(CC(C)C)cc2-n1ccnc1 [compound 208, (2R)-N-((1S)-1-((1R)-1-hydroxy-2-(((4S)-8-(1H-imidazol-1-yl)-6-(2-methylpropyl)-3,4-dihydrospiro[chromene-2,1′-cyclobutan]-4-yl)amino)ethyl)-3-buten-1-yl)-2-methoxypropanamide] | 6.38 | 6.32 | 0.2 µM | 40.5 µL/min/mg | 337 µL/min/mg |  |  | 
2 | CCC[C@H](NC(=O)[C@@H](C)OC)[C@H](O)CN[C@H]1CC2(CCC2)Oc2c1cc(CC(C)(C)C)nc2NC [compound 227] | 6.79 | 6.04 | 1.5 µM | 119 µL/min/mg | 212 µL/min/mg |  |  | 
3 | C=CC[C@H](NC(=O)COC)[C@H](O)CN[C@H]1CC2(CCC2)Oc2c1cc(CC(C)(C)C)nc2Nc1ccccc1 [compound 230] | 5.86 | 7.40 | 3.5 µM | 345 µL/min/mg | 168 µL/min/mg |  |  | 
4 | CCC[C@H](NC(=O)[C@H]1CCCO1)[C@H](O)CN[C@H]1CC2(CCC2)Oc2c1cc(CC(C)(C)C)nc2NC [compound 228, (2R)-N-((1S)-1-((1R)-2-(((4′S)-6′-(2,2-dimethylpropyl)-8′-(methylamino)-3′,4′-dihydrospiro[cyclobutane-1,2′-pyrano[2,3-c]pyridin]-4′-yl)amino)-1-hydroxyethyl)butyl)tetrahydro-2-furancarboxamide] | 6.11 | 6.20 | 1.5 µM | 165 µL/min/mg | 345 µL/min/mg |  |  | 
5 | C=CC[C@H](NC(=O)COC)[C@H](O)CN[C@H]1CC2(CCC2)Oc2c1cc(CC(C)(C)C)nc2Nc1cccnc1 [compound 240] | 6.46 | 6.57 | 0.5 µM | 551 µL/min/mg | 152 µL/min/mg |  |  | 
6 | C=CC[C@H](NC(=O)COC)[C@H](O)CN[C@H]1CC2(CCC2)Oc2c1cc(CC(C)(C)C)nc2-c1cncn1C [compound 238, N-((1S)-1-((1R)-2-(((4′S)-6′-(2,2-dimethylpropyl)-8′-(1-methyl-1H-imidazol-5-yl)-3′,4′-dihydrospiro[cyclobutane-1,2′-pyrano[2,3-c]pyridin]-4′-yl)amino)-1-hydroxyethyl)-3-buten-1-yl)-2-methoxyacetamide] | 6.83 | 6.02 | 0.16 µM | 58 µL/min/mg | 68 µL/min/mg |  |  | 
7 | C=CC[C@H](NC(=O)COC)[C@H](O)CN[C@H]1CC2(CCC2)Oc2c1cc(CC(C)(C)C)nc2Nc1ccc2c(c1)OCO2 [compound 233, N-((1S)-1-((1R)-2-(((4′S)-8′-(1,3-benzodioxol-5-ylamino)-6′-(2,2-dimethylpropyl)-3′,4′-dihydrospiro[cyclobutane-1,2′-pyrano[2,3-c]pyridin]-4′-yl)amino)-1-hydroxyethyl)-3-buten-1-yl)-2-methoxyacetamide] | 6.41 | 7.80 | 1.3 µM | 151 µL/min/mg | 197 µL/min/mg |  |  | 
8 | C#CC[C@H](NC(=O)[C@@H](C)OC)[C@H](O)CN[C@H]1CC2(CCC2)Oc2c1cc(CC(C)(C)C)nc2NC [compound 222] | 6.05 | 5.91 | 1.4 µM | 165 µL/min/mg | 156 µL/min/mg |  |  | 
9 | C=CC[C@H](NC(=O)[C@@H]1CN(Cc2nccs2)CCO1)[C@H](O)CN[C@H]1CC2(CCC2)Oc2ncc(CC(C)(C)C)cc21 [compound 246, (2S)-N-((1S)-1-((1R)-2-(((4′S)-6′-(2,2-dimethylpropyl)-3′,4′-dihydrospiro[cyclobutane-1,2′-pyrano[2,3-b]pyridin]-4′-yl)amino)-1-hydroxyethyl)-3-buten-1-yl)-4-(1,3-thiazol-2-ylmethyl)-2-morpholinecarboxamide] | 6.94 | 6.89 | 0.7 µM | 736 µL/min/mg | 335 µL/min/mg |  |  | 
10 | C=CC[C@H](NC(=O)COC)[C@H](O)CN[C@H]1CC2(CCC2)Oc2c1cc(CC(C)(C)C)cc2-n1ccnc1 [Example 216, N-((1S)-1-((1R)-2-(((4S)-6-(2,2-dimethylpropyl)-8-(1H-imidazol-1-yl)-3,4-dihydrospiro[chromene-2,1′-cyclobutan]-4-yl)amino)-1-hydroxyethyl)-3-buten-1-yl)-2-methoxyacetamide] | 6.48 | 6.35 | 0.2 µM | 49 µL/min/mg | 150 µL/min/mg |  |  | 

The remaining lines, values ahead:

Row | pIC50 ([1]; Homo sapiens, HEK293) | pIC50 (BACE1; read-out: BACE 1 FRET assay) | IC50 at 10 min (CYP3A4 (CYP3A)) | HLM [2] | RLM [3] | pIC50 ([1]; Aβ40 in conditioned medium after 24 h incubation) | pIC50 (BACE1) | pIC50 [1, 4] | SMILES
11 | 6.01 | 7.59 | 6.1 µM | 139 µL/min/mg | 150 µL/min/mg |  |  |  | C=CC[C@H](NC(C)=O)[C@H](O)CN[C@H]1CC2(CCC2)Oc2c1cc(CC(C)(C)C)nc2Nc1ccccc1 [compound 229, N-((1S)-1-((1R)-2-(((4′S)-6′-(2,2-dimethylpropyl)-8′-(phenylamino)-3′,4′-dihydrospiro[cyclobutane-1,2′-pyrano[2,3-c]pyridin]-4′-yl)amino)-1-hydroxyethyl)-3-buten-1-yl)acetamide]
12 | 6.43 | 7.11 | 1 µM | 284 µL/min/mg | 232 µL/min/mg |  |  |  | C=CC[C@H](NC(=O)COC)[C@H](O)CN[C@H]1CC2(CCC2)Oc2c(-c3ccc4c(c3)OCO4)cc(CC(C)(C)C)cc21 [compound 231, N-((1S)-1-((1R)-2-(((4S)-8-(1,3-benzodioxol-5-yl)-6-(2,2-dimethylpropyl)-3,4-dihydrospiro[chromene-2,1′-cyclobutan]-4-yl)amino)-1-hydroxyethyl)-3-buten-1-yl)-2-methoxyacetamide]
13 | 7.03 | 5.57 | 3.7 µM | 84 µL/min/mg | 45 µL/min/mg |  |  |  | CCOC[C@H](NC(C)=O)[C@@H](O)CN[C@H]1CC2(CCC2)Oc2ncc(CC(C)(C)C)cc21 [compound 241]
14 | 5.50 | 5.61 | 1.3 µM | 543 µL/min/mg | 176 µL/min/mg |  |  |  | C=CC[C@H](NC(=O)COCC)[C@H](O)CN[C@H]1CC2(CCC2)Oc2ncc(CC(C)(C)C)cc21 [compound 244]
15 |  |  |  |  |  | 6.29 | 6.47 |  | C=CCC(NC(C)=O)C(O)CNC1CC2(CC(O)C2)Oc2ccc(CC(C)(C)C)cc21 [Example 115, N-((1S)-1-((1R)-2-(((2s,3′S,4S)-6-(2,2-dimethylpropyl)-3′-hydroxy-3,4-dihydrospiro[chromene-2,1′-cyclobutan]-4-yl)amino)-1-hydroxyethyl)-3-buten-1-yl)acetamide]
16 |  |  |  |  |  |  | 6.60 | 6.44 | C=CC[C@H](NC(=O)c1c(F)ccc(F)c1F)[C@H](O)CN[C@H]1CC2(CCC2)Oc2ncc(CC(C)(C)C)cc21 [Example 75, N-((1S)-1-((1R)-2-(((4′S)-6′-(2,2-dimethylpropyl)-3′,4′-dihydrospiro[cyclobutane-1,2′-pyrano[2,3-b]pyridin]-4′-yl)amino)-1-hydroxyethyl)-3-buten-1-yl)-2,3,6-trifluorobenzamide]
17 |  |  |  |  |  |  | 6.43 | 7.19 | C=CC[C@H](NC(=O)c1cncn1C)[C@H](O)CN[C@H]1CC2(CCC2)Oc2ncc(CC(C)(C)C)cc21 [Example 131, N-((1S)-1-((1R)-2-(((4′S)-6′-(2,2-dimethylpropyl)-3′,4′-dihydrospiro[cyclobutane-1,2′-pyrano[2,3-b]pyridin]-4′-yl)amino)-1-hydroxyethyl)-3-buten-1-yl)-1-methyl-1H-imidazole-5-carboxamide]
18 |  |  |  |  |  |  | 6.25 | 5.30 | C=CC[C@H](NC(=O)c1ccc(F)cn1)[C@H](O)CN[C@H]1CC2(CCC2)Oc2ncc(CC(C)(C)C)cc21 [Example 62, N-((1S)-1-((1R)-2-(((4′S)-6′-(2,2-dimethylpropyl)-3′,4′-dihydrospiro[cyclobutane-1,2′-pyrano[2,3-b]pyridin]-4′-yl)amino)-1-hydroxyethyl)-3-buten-1-yl)-5-fluoro-2-pyridinecarboxamide]
19 |  |  |  |  |  |  | 5.38 | ≤ 5.00 | C=CC[C@H](NC(C)=O)[C@H](O)CN[C@H]1C[C@@]2(CC[C@H]2O)Oc2ncc(CC(C)(C)C)cc21 [Example 50, N-((1S)-1-((1R)-2-(((1R,2R,4′S)-6′-(2,2-dimethylpropyl)-2-hydroxy-3′,4′-dihydrospiro[cyclobutane-1,2′-pyrano[2,3-b]pyridin]-4′-yl)amino)-1-hydroxyethyl)-3-buten-1-yl)acetamide]
20 |  |  |  |  |  |  | 6.67 | 5.59 | C=CC[C@H](NC(=O)c1cccc2c1OCO2)[C@H](O)CN[C@H]1CC2(CCC2)Oc2ncc(CC(C)(C)C)cc21 [Example 103, N-((1S)-1-((1R)-2-(((4′S)-6′-(2,2-dimethylpropyl)-3′,4′-dihydrospiro[cyclobutane-1,2′-pyrano[2,3-b]pyridin]-4′-yl)amino)-1-hydroxyethyl)-3-buten-1-yl)-1,3-benzodioxole-4-carboxamide]
21 |  |  |  |  |  |  | 7.38 | 6.90 | C=CC[C@H](NC(=O)COC)[C@H](O)CNC1CC2(CC(F)(F)C2)Oc2ncc(CC(C)(C)C)cc21 (stereo partly drawn) [Example 41, N-((1S)-1-((1R)-2-((6′-(2,2-dimethylpropyl)-3,3-difluoro-3′,4′-dihydrospiro[cyclobutane-1,2′-pyrano[2,3-b]pyridin]-4′-yl)amino)-1-hydroxyethyl)-3-buten-1-yl)-2-(methyloxy)acetamide]
